Measurements: the NIST ThermoML archive (doi:10.1021/acs.jced.8b00793)

Conditions: 100 kPa, Liquid; for viscosity: Concentric cylinders viscometry; for mass density: Vibrating tube method

CCO [ethanol]
Conditions	mass density [kg/m3]	viscosity [mPa·s]
293.15 K	790.7	1.23
303.15 K	782.2	1.02
313.15 K	773.4	0.85
323.15 K	760.1	0.71
